Patent publication US4743610A, “N-[ω(3-pyridinyl)alkyl]benzamides, useful as thromboxane synthetase enzyme and/or cardioprotective agents” (American Cyanamid Company, priority 1987, dated 1988)
Structures can show the parent of a compound that is named as a salt.

Columns and labels:
[1] = biological target: T1, thromboxane synthetase enzyme (Rattus norvegicus, UniProt P49430); experiment: Inhibition of thromboxane formation (TXB2 RIA) in washed platelets of spontaneously hypertensive rats; assay type: cell-based, Okamoto-Aoki spontaneously hypertensive rats (SHR); conditions: SHR platelets, 10 minutes at 37° C.; drug concentration not given
T1 construct: The platelets were isolated by centrifuging the PRP for 10 minutes; endogenous in cells; host or cells: washed platelets from arterial blood of Okamoto-Aoki spontaneously hypertensive rats (SHR; animals from Taconic Farms, Germantown, N.Y.)
T1 sequence (P49430 1-533): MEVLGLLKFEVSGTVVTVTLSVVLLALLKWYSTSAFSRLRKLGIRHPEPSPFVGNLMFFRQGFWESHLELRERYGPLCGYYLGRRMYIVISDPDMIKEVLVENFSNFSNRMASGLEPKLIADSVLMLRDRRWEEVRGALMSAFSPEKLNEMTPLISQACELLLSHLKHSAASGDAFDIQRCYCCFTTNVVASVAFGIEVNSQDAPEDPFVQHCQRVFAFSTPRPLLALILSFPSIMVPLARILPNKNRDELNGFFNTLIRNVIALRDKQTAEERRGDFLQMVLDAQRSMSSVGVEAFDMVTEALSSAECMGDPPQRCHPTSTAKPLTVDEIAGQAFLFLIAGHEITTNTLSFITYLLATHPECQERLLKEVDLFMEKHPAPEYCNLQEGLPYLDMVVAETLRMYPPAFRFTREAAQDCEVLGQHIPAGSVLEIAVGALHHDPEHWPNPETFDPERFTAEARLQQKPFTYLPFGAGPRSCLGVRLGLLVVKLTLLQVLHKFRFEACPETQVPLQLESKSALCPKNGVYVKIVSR
Description: Under urethan anesthesia, […] of arterial blood was collected in one ml. of 3.2% sodium citrate in a polystyrene tube from Okamoto-Aoki spontaneously hypertensive rats (SHR) (Taconic Farms, Germantown, N.Y.) between 19 and 24 weeks in age. The blood was diluted with 3 ml. of cold saline and centrifuged at room temperature for 15 minutes at 460×g. The platelet rich plasma (PRP) was separated. The platelets were isolated by centrifuging the PRP for 10 minutes at 1060 xg and were washed in 4 ml. of cold oxygenated Krebs phosphate buffer, pH 7.4. The chilled platelets recovered from centrifuging at 800×g for 10 minutes were resuspended in oxygenated Krebs phosphate buffer and diluted to contain 4.5-6.0×10^4 platelets/μl. The inhibition of thromboxane (TX) formation was studied by determining the concentration of thromboxane B2 (TXB2), the stable hydrolysis product of TXA2. Assay samples, prepared on ice, contained 200 μl platelet suspension, 50 μl saline, and 50 μl vehicle or drug under study (OKY1581, UK-37248-01, 1-benzylimidazole, or indomethacin). The samples were incubated for 10 minutes at 37° C. in a metabolic shaker. The reaction was terminated by immersing the tubes in an ice bath and adding 50 μl of 0.5M citric acid. The samples were centrifuged for 10 minutes in a refrigerated centrifuge and the supernatants thus obtained were decanted and stored at -20° C. The TXB2 content for each sample was determined by a direct radioimmunoassay (RIA) utilizing a TXB2 specific RIA kit purchased from New England Nuclear, Boston, MA. and expressed as pg TXB2 formed minute^-1 sample^-1, from which the percent inhibition of TXB2 formation was calculated.

Sprague-Dawley rats = experiment: In Vivo Test for the Prevention of Death Due to Infarction; conditions: 3 rats infarcted, 10 mg/kg intraperitoneal 1 h before 10 mg/kg s.c. (-)isoproternol hydrochloride, observed 2.5 hours; for responders at 10 mg/kg: Rattus norvegicus, ip, read-out: % Survival
Description: Beitz, Toxicology and Applied Pharmacology 62, 152-157 (1982) was performed as follows:
In Vivo Test for the Prevention of Death Due to Infarction
Sprague-Dawley rats were pretreated with an intraperitoneal injection of the test compound at 10 mg/kg of body weight. One hour later, a myocardial infarction was induced by injection 10 mg/kg of (-)isoproternol hydrochloride subcutaneously. Each compound was tested in at least three rats. […] The compound is considered "in vivo active" in those groups in which all animals survive the myocardial infarction.

Structure (SMILES) | % Inhibition (of TXB2 formation) [1] | No. of Rats Surviving (Sprague-Dawley rats) | responders at 10 mg/kg (Sprague-Dawley rats)
Cc1ccc(N)c(C(=O)NCCCCc2cccnc2)c1.Cl.Cl [Example 7, 2-Amino-5-methyl-N-[4-(3-pyridinyl)butyl]benzamide dihydrochloride] | 100% | 3 | 100%
Cl.Cl.Nc1ccc(Cl)cc1C(=O)NCCCCc1cccnc1 [Example 3, 2-Amino-5-chloro-N-[4-(3-pyridinyl)butyl]benzamide dihydrochloride] | – | 3 | 100%
O=C(O)c1ccccc1C(=O)NCCc1cccnc1 [Example 12, 2-[[[2-(3-Pyridinyl)ethyl]amino]carbonyl]benzoic acid] | – | 3 | 100%
CNc1ccc(Cl)cc1C(=O)NCCCCc1cccnc1.Cl.Cl [Example 4, 5-Chloro-2-(methylamino)-N-[4-(3-pyridinyl)butyl]benzamide dihydrochloride] | 99% | – | –
Nc1cc(Cl)ccc1C(=O)NCCCc1cccnc1 [2-Amino-4-chloro-N--[3-(3-pyridinyl)propyl]benzamide, dihydrochloride] | – | 3 | 100%
Nc1ccccc1C(=O)NCCc1cccnc1 [Example 1, 2-Amino-N-[2-(3-pyridinyl)ethyl]benzamide] | – | 3 | 100%
Nc1cc(Cl)ccc1C(=O)NCCCc1cccnc1 [Example 9, 2-Amino-4-chloro-N-[3-(3-pyridinyl)propyl]benzamide] | 95% | – | –
O=C(O)c1ccccc1C(=O)NCCCCc1cccnc1 [Example 13, 2-[[[4-(3-Pyridinyl]butyl]amino]carbonyl]benzoic acid] | 92% | – | –
Cl.Cl.Nc1cc(Cl)ccc1C(=O)NCCCCc1cccnc1 [Example 6, 2-Amino-4-Chloro-N-[4-(3-pyridinyl)butyl]benzamide dihydrochloride] | – | 3 | 100%
O=C(O)c1ccc(Cl)cc1C(=O)NCCCCc1cccnc1 [Example 14, 4-Chloro-2-[[[4-(3-pyridinyl)butyl]amino]carbonyl]benzoic acid] | 100% | 3 | 100%
Cl.Cl.Nc1c(C(=O)NCCCc2cccnc2)cccc1C(F)(F)F [Example 11, 2-Amino-N-[3-(3-pyridinyl)propyl]-3-(trifluoromethyl)benzamide dihydrochloride] | 98% | – | –
Cl.Cl.Nc1ccccc1C(=O)NCCCCc1cccnc1 [Example 2, 2-Amino-N-[4-(3-pyridinyl)butyl]benzamide dihydrochloride] | 97% | 3 | 100%
Nc1ccc(Cl)cc1C(=O)NCCCc1cccnc1 [2-Amino-5-chloro-N--[3-(3-pyridinyl)propyl]benzamide dihydrochloride] | 98% | – | –
